In patent publication US11912701B2, “Protein kinase inhibitors for promoting liver regeneration or reducing or preventing hepatocyte death” (HEPAREGENIX GMBH, priority 2018, dated 2024):

How the values were obtained:
Assay type in all cases: biochemical
MKK4 = target: T1, MKK4 (Homo sapiens, UniProt P45985); test: 33PanQinase enzyme assay, MKK4; settings: assay 'IC50'; read-out: Potency MKK4 (IC50)
T1 construct: purchased ProQinase GmbH, Freiburg, Germany (33PanQinase Assay Service)
T1 sequence (P45985 1-399): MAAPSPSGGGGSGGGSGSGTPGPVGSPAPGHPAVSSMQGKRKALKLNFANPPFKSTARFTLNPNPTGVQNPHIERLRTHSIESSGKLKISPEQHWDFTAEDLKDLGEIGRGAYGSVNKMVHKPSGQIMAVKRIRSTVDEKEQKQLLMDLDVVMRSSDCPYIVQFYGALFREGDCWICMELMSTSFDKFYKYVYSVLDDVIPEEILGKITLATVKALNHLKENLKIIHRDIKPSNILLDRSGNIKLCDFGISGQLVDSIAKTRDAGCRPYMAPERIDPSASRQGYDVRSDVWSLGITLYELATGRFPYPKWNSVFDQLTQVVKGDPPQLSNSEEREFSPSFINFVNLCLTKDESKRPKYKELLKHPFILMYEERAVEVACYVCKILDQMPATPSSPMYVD
Method: (§1) The kinase activities of the compounds of the invention were measured using the 33PanQinase® Assay Service provided by ProQinase GmbH, Freiburg, Germany. Details of the assay conditions are disclosed on the website of ProQinase (https://www.proginase.com/products-services-biochemical-assay-services/kinase-assays). In brief, all kinase assays were performed in 96-well FlashPlates™ from PerkinElmer (Boston, MA, USA) in a 50 μl reaction volume. The reaction cocktail was pipetted in four steps in the following order: • 20 μl of assay buffer (standard buffer) • 5 μl of ATP solution (in H2O) • 5 μl of test compound (in 10% DMSO) • 20 μl enzyme/subtrate mix
(§2) The reaction cocktails were incubated at 30° C. for 60 minutes. The reaction is stopped with 50 μl of 2% (v/v) H3PO4, plates were aspirated and washed two times with 200 μl 0.9% (w/v) NaCl. Incorporation of ^33Pi was determined with a microplate scintillation counter (Microbeta, Wallac).
(§3) All assays were performed with a BeckmanCoulter/SAGIAN™ Core System.
(§4) In case of single concentration assays, the potency of the test compound is expressed as % residual activity. […] The fitting method used was a least-squares fit.
Inhibition potency against MKK4 is categorized as follows:
Assay at single concentration (100 nM):

BRaf = target: T2, BRaf (Homo sapiens, UniProt P15056); test: 33PanQinase enzyme assay, BRaf; settings: ratio IC50(BRaf)/IC50(MKK4)
T2 construct: purchased ProQinase GmbH, Freiburg, Germany (33PanQinase Assay Service)
Method: as §1, §2, §3, §4
(§5) Selectivity of test compounds against BRaf, JNK1 and MKK7, altogether denominated as off-targets was calculated by the ratio of IC50 (off-target)/IC50 (MKK4) and categorized as follows: […]

JNK1 = JNK1 (Homo sapiens, UniProt P45983); test: 33PanQinase enzyme assay, JNK1; set-up: purchased ProQinase GmbH, Freiburg, Germany (33PanQinase Assay Service); settings: ratio IC50(JNK1)/IC50(MKK4)
Method: as §1, §2, §3, §4, §5

MKK7 = target: T3, MKK7 (Homo sapiens, UniProt O14733); test: 33PanQinase enzyme assay, MKK7; set-up: purchased ProQinase GmbH, Freiburg, Germany (33PanQinase Assay Service); settings: ratio IC50(MKK7)/IC50(MKK4)
T3 sequence (O14733 1-419): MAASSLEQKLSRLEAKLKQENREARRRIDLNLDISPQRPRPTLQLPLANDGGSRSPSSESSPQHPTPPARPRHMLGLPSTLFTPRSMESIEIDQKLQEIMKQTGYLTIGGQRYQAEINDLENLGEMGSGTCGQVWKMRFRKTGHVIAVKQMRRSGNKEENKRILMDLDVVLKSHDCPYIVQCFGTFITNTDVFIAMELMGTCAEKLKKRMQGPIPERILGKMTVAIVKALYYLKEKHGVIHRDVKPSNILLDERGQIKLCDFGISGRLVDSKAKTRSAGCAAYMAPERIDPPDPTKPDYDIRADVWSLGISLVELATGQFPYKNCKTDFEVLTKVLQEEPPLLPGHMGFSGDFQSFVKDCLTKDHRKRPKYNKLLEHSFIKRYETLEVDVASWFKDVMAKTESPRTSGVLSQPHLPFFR
Method: as §1, §2, §3, §4, §5

T2 sequence (P15056 whole entry, species assumed): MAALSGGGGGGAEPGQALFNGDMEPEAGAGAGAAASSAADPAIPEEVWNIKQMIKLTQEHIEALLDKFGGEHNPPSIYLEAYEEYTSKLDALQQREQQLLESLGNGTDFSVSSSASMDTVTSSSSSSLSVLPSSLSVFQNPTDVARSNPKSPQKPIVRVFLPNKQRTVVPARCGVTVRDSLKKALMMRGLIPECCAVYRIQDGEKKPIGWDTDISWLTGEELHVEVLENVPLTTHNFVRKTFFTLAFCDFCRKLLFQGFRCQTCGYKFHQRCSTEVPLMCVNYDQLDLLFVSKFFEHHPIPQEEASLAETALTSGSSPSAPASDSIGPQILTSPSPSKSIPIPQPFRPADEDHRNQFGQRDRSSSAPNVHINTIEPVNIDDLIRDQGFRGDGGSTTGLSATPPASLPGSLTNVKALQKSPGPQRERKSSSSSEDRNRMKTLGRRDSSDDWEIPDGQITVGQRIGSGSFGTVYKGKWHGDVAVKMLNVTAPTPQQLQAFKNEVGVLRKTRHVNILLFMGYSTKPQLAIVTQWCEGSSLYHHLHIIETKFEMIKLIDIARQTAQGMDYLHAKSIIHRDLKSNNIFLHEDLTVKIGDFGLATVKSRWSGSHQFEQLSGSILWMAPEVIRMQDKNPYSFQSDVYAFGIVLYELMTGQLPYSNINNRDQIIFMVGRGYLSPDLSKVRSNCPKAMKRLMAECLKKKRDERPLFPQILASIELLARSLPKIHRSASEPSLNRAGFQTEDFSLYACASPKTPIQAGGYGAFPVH
Chain of JNK1 (P45983 whole entry): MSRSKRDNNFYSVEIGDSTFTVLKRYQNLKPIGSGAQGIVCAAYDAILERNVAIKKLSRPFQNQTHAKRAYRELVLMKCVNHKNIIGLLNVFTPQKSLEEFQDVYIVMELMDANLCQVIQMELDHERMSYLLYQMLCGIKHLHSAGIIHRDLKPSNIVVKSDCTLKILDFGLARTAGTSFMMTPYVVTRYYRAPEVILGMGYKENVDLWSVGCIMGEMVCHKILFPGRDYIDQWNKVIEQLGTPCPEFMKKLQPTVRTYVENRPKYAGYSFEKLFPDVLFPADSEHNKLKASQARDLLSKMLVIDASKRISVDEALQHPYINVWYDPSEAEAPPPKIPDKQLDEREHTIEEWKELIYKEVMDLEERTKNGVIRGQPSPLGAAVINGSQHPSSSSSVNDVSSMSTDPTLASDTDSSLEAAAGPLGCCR

| SMILES | IC50 (MKK4) [µM] | Selectivity JNK1, IC50(off-target)/IC50(MKK4) (JNK1) | Selectivity IVIKK7, IC50(off-target)/IC50(MKK4) (MKK7) | Selectivity Braf, IC50(off-target)/IC50(MKK4) (BRaf) |
| --- | --- | --- | --- | --- |
| CCCS(=O)(=O)Nc1ccc(F)c(C(=O)c2c[nH]c3ncc(-c4ccc(N=S(C)(C)=O)cc4)cc23)c1F [Example 119, N-(3-(5-(4-((dimethyl(oxo)-l6-sulfaneylidene)amino)phenyl)-1H-pyrrolo[2,3-b]pyridine-3-carbonyl)-2,4-difluorophenyl)propane-1-sulfonamide] | 0.1 to 1 | ◯ (3 ≥ IC50(off-target)/IC50(MKK4)) | +++ (IC50(off-target)/IC50(MKK4) > 100) | ◯ (3 ≥ IC50(off-target)/IC50(MKK4)) |
| CCCS(=O)(=O)Nc1ccc(F)c(C(=O)c2c[nH]c3ncc(-c4ccccc4N)cc23)c1F [Example 122, N-(3-(5-(2-aminophenyl)-1H-pyrrolo[2,3-b]pyridine-3-carbonyl)-2,4-difluorophenyl)propane-1-sulfonamide] | 0.1 to 1 | ◯ (3 ≥ IC50(off-target)/IC50(MKK4)) | +++ (IC50(off-target)/IC50(MKK4) > 100) | ◯ (3 ≥ IC50(off-target)/IC50(MKK4)) |
| COc1ncc(-c2cnc3[nH]cc(C(=O)c4cccc(NS(=O)(=O)Cc5ccccc5)c4F)c3c2)cn1 [Example 130, N-(2-fluoro-3-(5-(2-methoxypyrimidin-5-yl)-1H-pyrrolo[2,3-b]pyridine-3-carbonyl)phenyl)-1-phenylmethanesulfonamide] | 0.1 to 1 | ++ (100 ≥ IC50(off-target)/IC50(MKK4) > 10) | +++ (IC50(off-target)/IC50(MKK4) > 100) | ++ (100 ≥ IC50(off-target)/IC50(MKK4) > 10) |
| O=C(c1cccc(NS(=O)(=O)Cc2ccccc2)c1F)c1c[nH]c2ncc(-c3cnc(C4CC4)nc3)cc12 [Example 131, N-(3-(5-(2-cyclopropylpyrimidin-5-yl)-1H-pyrrolo[2,3-b]pyridine-3-carbonyl)-2-fluorophenyl)-1-phenylmethanesulfonamide] | 0.1 to 1 | ++ (100 ≥ IC50(off-target)/IC50(MKK4) > 10) | +++ (IC50(off-target)/IC50(MKK4) > 100) | ++ (100 ≥ IC50(off-target)/IC50(MKK4) > 10) |
| CCCS(=O)(=O)Nc1ccc(F)c(C(=O)c2c[nH]c3ncc(N4CC(O)C4)cc23)c1F [Example 134, N-(2,4-difluoro-3-(5-(3-hydroxyazetidin-1-yl)-1H-pyrrolo[2,3-b]pyridine-3-carbonyl)phenyl)propane-1-sulfonamide] | 1 to 10 | ◯ (3 ≥ IC50(off-target)/IC50(MKK4)) | ++ (100 ≥ IC50(off-target)/IC50(MKK4) > 10) | ◯ (3 ≥ IC50(off-target)/IC50(MKK4)) |

Further lines, with some results ahead:

| IC50 (MKK4) [µM] | Selectivity JNK1, IC50(off-target)/IC50(MKK4) (JNK1) | Selectivity IVIKK7, IC50(off-target)/IC50(MKK4) (MKK7) | SMILES | Selectivity Braf, IC50(off-target)/IC50(MKK4) (BRaf) |
| --- | --- | --- | --- | --- |
| 0.1 to 1 | ◯ (3 ≥ IC50(off-target)/IC50(MKK4)) | +++ (IC50(off-target)/IC50(MKK4) > 100) | O=C(c1cccc(NS(=O)(=O)Cc2ccccc2)c1F)c1c[nH]c2ncc(-c3cccnc3)cc12 [Example 132, N-(2-fluoro-3-(5-(pyridin-3-yl)-1H-pyrrolo[2,3-b]pyridine-3-carbonyl)phenyl)-1-phenylmethanesulfonamide] | ++ (100 ≥ IC50(off-target)/IC50(MKK4) > 10) |
| 0.1 to 1 | ◯ (3 ≥ IC50(off-target)/IC50(MKK4)) | +++ (IC50(off-target)/IC50(MKK4) > 100) | O=C(c1ccc(F)c(NS(=O)(=O)Cc2ccccc2)c1)c1c[nH]c2ncc(-c3ccc(Cl)cc3)cc12 [Example 133, N-(5-(5-(4-chlorophenyl)-1H-pyrrolo[2,3-b]pyridine-3-carbonyl)-2-fluorophenyl)-1-phenylmethanesulfonamide] | ++ (100 ≥ IC50(off-target)/IC50(MKK4) > 10) |
